Assays:
[1] = system: caveolar endocytosis in HSFs; test: Uptake of endocytic markers in human skin fibroblasts (fluorescence microscopy); format: cell-based; settings: HSFs treated 30 min at 10° C. with lipid, pulse labeled, 5 min at 37° C.
Method: HSFs were either untreated (Control) or treated for 30 min at 10° C. with D-erythro or L-threo-C8-LacCer, and then pulse labeled with fluorescent albumin or β1-integrin Fab (caveolar markers), Tfn (clathrin marker), dextran (fluid phase marker), or anti-IL2R Fab (for RhoA pathway). After 5 min at 37° C., cells were acid-stripped to remove non-internalized marker and images were acquired by fluorescence microscopy (A) and quantified (B). At least 20 cells for each condition were analyzed in multiple experiments. Bar, 10 μm.
The non-natural (L-threo; LT) isomers of C8-LacCer and BODIPY-LacCer were synthesized. The latter was synthesized by the method detailed in Liu, Y., et al. Chem. Phys. Lipids, 2006, 142, 58 (referred to as Liu). C8-LT-LacCer was prepared through a modification of the methods used in Liu, where an activated for of octanoic acid was used in place of BODIPY-C5-NHS. HSFs were then either untreated (Control) or treated for 30 min at 10° C. with D-erythro (DE) or L-threo (LT) C8-LacCer, and then pulse labeled with fluorescent albumin or anti-β1-integrin Fab (caveolar markers), Tfn (clathrin marker), dextran (fluid phase marker), or anti-IL2R Fab (for RhoA pathway). After 5 min at 37° C., cells were acid-stripped to remove non-internalized marker and images were acquired by fluorescence microscopy (A) and quantified (B). At least 20 cells for each condition were analyzed in multiple experiments. Bar, 10 μm.

[2] = system: PM domains enriched in GM1 ganglioside; test: PM microdomain clustering induced by CtxB and anti-CtxB Ab in HSFs; format: cell-based, human; settings: HSFs pretreated with lipid 30 min at 10° C.
Text: (§1) PM domains enriched in GM1 ganglioside (A,B) or cholesterol (C) were visualized using fluorescent CtxB or BC-⊖, respectively. Clustering of these probes was induced using an anti-CtxB Ab or SV40. Note the inhibition of microdomain clustering when cells were pretreated with C8-LT-LacCer, compared to untreated control samples. (A), HSFs; (B,C) CV1 cells. Bars, 10 μm.
A potential mechanism for C8-LT-LacCer inhibition of caveolar endocytosis, namely disruption of PM microdomain formation, was explored. This mechanistic possibility was tested through incubation of cells with AF594-CtxB at 10° C. to label […] at the PM, followed by an anti-Ctx-B IgG.

β1-integrin = molecular target: T1, β1-integrin (Homo sapiens, UniProt P05556); test: β1-integrin activation in HSFs (HUTS-4 Ab binding); format: cell-based; settings: for HUTS binding (β1-integrin activation), agent alone: HSFs, lipid in the absence of β1-stim Ab, or β1-stim Ab alone
T1 construct: endogenous in cells; host or cells: human skin fibroblasts (HSFs)
T1 sequence (P05556 21-798): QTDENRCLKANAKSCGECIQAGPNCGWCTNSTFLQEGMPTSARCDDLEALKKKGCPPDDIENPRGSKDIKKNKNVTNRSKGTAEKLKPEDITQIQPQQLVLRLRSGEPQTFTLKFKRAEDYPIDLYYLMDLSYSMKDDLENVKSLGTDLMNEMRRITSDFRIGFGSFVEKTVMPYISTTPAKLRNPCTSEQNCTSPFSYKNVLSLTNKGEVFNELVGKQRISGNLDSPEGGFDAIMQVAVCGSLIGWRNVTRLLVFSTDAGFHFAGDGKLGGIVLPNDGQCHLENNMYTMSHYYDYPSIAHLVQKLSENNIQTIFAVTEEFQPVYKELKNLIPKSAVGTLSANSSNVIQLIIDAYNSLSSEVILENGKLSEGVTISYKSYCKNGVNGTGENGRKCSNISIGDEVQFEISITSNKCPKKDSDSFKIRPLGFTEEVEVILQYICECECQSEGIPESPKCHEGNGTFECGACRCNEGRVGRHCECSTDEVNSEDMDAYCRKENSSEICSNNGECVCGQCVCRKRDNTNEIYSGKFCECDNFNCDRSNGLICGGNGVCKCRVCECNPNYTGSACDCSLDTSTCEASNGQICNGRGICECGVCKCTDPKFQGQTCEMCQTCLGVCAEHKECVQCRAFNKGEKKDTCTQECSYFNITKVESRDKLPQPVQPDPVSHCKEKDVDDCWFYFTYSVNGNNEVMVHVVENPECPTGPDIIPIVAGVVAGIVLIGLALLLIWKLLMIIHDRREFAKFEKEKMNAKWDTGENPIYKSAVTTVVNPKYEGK
Method: FIG. 4a: HSFs were serum-starved for 2-3 hrs and then either untreated (panel 1, Control) or incubated with a stimulating β1-integrin IgG (panel 2; β1-stim) or with the LacCer isomers (panels 3 & 4) for 30 min at 10° C. All samples were then warmed for 30 sec at 37° C., fixed and stained with HUTS-4 Ab that recognizes β1-integrin in its active conformation. Note the absence of β1-integrin activation in cells pretreated with C8-LT-LacCer. Quantitation in FIG. 4b was by image analysis (n≧10 cells/condition; 3 independent experiments). Bars, 10 μm.
A further mechanistic possibility by which C8-LT-LacCer might inhibit caveolar internalization is by disruption transmembrane signaling events required for endocytosis. […] The first examination involved the activation of β1-integrin in HSFs following crosslinking with a stimulatory Ab (β1-stim Ab) using the HUTS-4 Ab which only binds to β1-integrins in their activated conformation (see, e.g., Luque, A. et al., J. Biol. Chem. 1996, 271, 11067).

src kinase = test: src phosphorylation (Y416) immunoblot in HSFs; format: cell-based, human; settings: for src activation (phosphorylation at Y416), lipid alone: 30 min at 10° C., then 30 sec at 37° C.; for src phosphorylation induced by β1-stim Ab: cells pretreated with lipid, data not shown
Method: HSFs were treated with C8-DE-LacCer (±PP2), C8-LT-LacCer, PDGF, or with β1 stim Ab±LacCer isomers. Samples were warmed for 30 sec at 37° C., lysed, and the cell lysates blotted for src and phosphor-Src (Y416).
Cells were incubated for 30 min at 10° C.± the LacCer stereoisomers and/or the β1-stim Ab followed by a 30 sec incubation at 37° C. Cell lysates were then immunoblotted for src and phospho-(Y416) src.

human eosinophils [3] = test: Eosinophil adhesion to tissue culture wells; format: cell-based
human eosinophils [4] = test: Eosinophil superoxide generation (cytochrome c reduction); format: cell-based; settings: versus medium alone, 37° C., up to 4 h
Method: Human eosinophils were purified from normal individuals or patients with mild allergy by Percoll density gradient centrifugation and magnetic cell sorting using MACS anti-CD16 microbeads as described by Hansel T. T., et al., J. Immunol. Methods 1991, 145, 105. Briefly, after peripheral blood was overlaid on an isotonic Percoll solution (1.084 g.ml, Sigma), the blood was centrifuges at 1000×g for 30 min at 4° C. Mononuclear cells at the interface were removed, and erythrocytes in sediment were lysed by two cycles of hypotonic water lysis. […] The purity of eosinophils counted by Randolph's stain was >98%. […]
Superoxide anion generation and degranulation by human eosinophils were used as readouts of eosinophils functions in response to proteases or synthetic PAR activating peptides. Generation of superoxide by eosinophils was measured by superoxide dismutase-inhibitable reduction of cytochrome c as previously described with slight modifications. […] Immediately after addition of stimuli, the reaction wells were measured for absorbance at 550 nm in a microplate autoreader (Thermomax, Molecular Devices, Menlo Park, Calif.), followed by repeated readings. Between absorbance measurements, the plate was incubated at 37° C. […] To quantitate eosinophils degranulation, the concentrations of eosinphil-derived neutrotoxin (EDN) in the sample supernatants were measure by specific RIA.

SV40 virus [5] = test: SV40 infection of CV1 cells (large T antigen expression); format: cell-based, monkey; settings: CV1 cells pretreated with lipid and SV40 at low temperature, then 37° C. for 14 hrs
[6] = system: PM domains enriched in GM1 ganglioside; settings: Singh et al., 2006, submitted; cited from earlier work
rat fibroblasts = test: Inhibition of lipid analog endocytosis by biochemical treatments in rat fibroblasts; format: cell-based
Text: To define the molecular features of GSL analogs and their ability to selectively internalize by caveolar endocytosis, the structure of the natural D-erythro-LacCer compound was modified (Singh, R. D., et al. Mol. Biol. Cell, 2003, 14, 3254). The modifications included those to the structure of the fluorescent lipid through variations to its carbohydrate headgroup, chain length of the sphingosine base, or chain length of the fluorescent fatty acid (see FIG. 6). Tests were designed to test initial internalization and sensitivity to inhibitor treatments.
To investigate the structural determinants of GSLs that result in selective internalization via caveolae, the structure of the fluorescent GSL analogs were systematically varied (see FIG. 6) and examined to determine the effect of these variations on the mechanism of analog internalization. To examine the significance of the carbohydrate head group, the fluorescent analogs of GalCer, globoside, GM1, LacCer, MalCer, and sulfatide were used. For each of these fluorescent GSL analogs, the fluorescent fatty acid and sphingosine base were identical (n′=3, n=7; FIG. 6A). Rat fibroblasts (RFs) were incubated with each analog in the presence or absence of various inhibitors to differentiate clathrin-dependent from clathrin-independent endocytosis, and the amount of internalization (at 5 min) was quantified by image analysis.
A control experiment was carried out exactly as above, except that BODIPY-LacCer was introduced into cells from an ethanolic solution rather than from a BSA complex.
Furthermore, the importance of hydrophobicity on the mechanism of GSL endocytosis was examined. For these studies, the BODIPY-LacCer analogs that were used varied the chain length of the sphingosine base (C12 to C20), or fatty acid (C3 vs. C5 spacer) (n=1, 5, 7, or 9; n′=1 or 3; FIG. 6A).
Finally, a comparison between NBD-LacCer and NBD-D-PC (see FIG. 6B)was made to study the possible influence of the lipid backbone (ceramide vs. glycerol) on the internalization mechanism.

[7] = system: clathrin-dependent endocytosis; settings: Singh et al., J. Biol. Chem. 2006; cited from earlier work
[8] = system: PM domains enriched in GM1 ganglioside and cholesterol; test: SV40-induced PM domain formation in CV1 cells; format: cell-based, monkey; settings: CV1 cells pretreated with lipid, low temperature
Text: as §1

SV40 virus [9] = test: SV40 binding to CV1 cells (anti-SV40 VP1 MAb); settings: lipid and SV40 at low temperature
Method: (A, B) CV1 cells were incubated LacCer stereoisomers for 30 min at 10° C., and then coincubated for 1 hr at 10° C. with SV40 virus (MOI=15). Samples were washed, incubated for 40 hrs in complete medium, fixed, permeabilized, and stained for the Large T antigen. Values in (B) are mean ±SD (n≧50 cells/condition; three independent experiments). (C, D) CVI cells were treated with SV40 for 1 hr as in (A,B) and SV40 binding to live cells was detected using anti-SV40 VP1 MAb. Values in D are mean ±SD (n≧20 cells from two independent experiments).
Cells were treated with the C8-LT-LacCer isomer and SV40 at low temperature, washed, and then incubated with a monoclonal antibody to the SV40 major capsid protein VP1.

[10] = system: clathrin-dependent endocytosis; test: Internalization route of BODIPY-LacCer stereoisomers; format: cell-based; settings: data not shown

**Q.** Which results are given for `CCCCCCCCCCCCC/C=C/[C@@H](O)[C@H](CO[C@@H]1O[C@H](CO)[C@@H](O[C@@H]2O[C@H](CO)[C@H](O)[C@H](O)[C@H]2O)[C@H](O)[C@H]1O)NC(=O)CCCCCCC` [C8-DE-LacCer]?
**A.** uptake of caveolar markers (fluorescent albumin, β1-integrin Fab) [1]: stimulated caveolar uptake; clustering of PM domains induced by labeled CtxB and crosslinking Ab [2]: No inhibition of domain formation was observed; HUTS binding (β1-integrin activation), agent alone (β1-integrin): activated β1-integrin; src activation (phosphorylation at Y416), lipid alone (src kinase): activated (phosphorylated at Y416); src phosphorylation induced by β1-stim Ab (src kinase): did not significantly affect src phosphorylation; adhesion of eosinophils (human eosinophils [3]): induces adhesion of eosinophils to tissue culture wells; superoxide production by eosinophils (human eosinophils [4]): A large quantity of superoxide was produced; SV40 infection monitored by expression of the large T antigen (SV40 virus [5]): no effect; formation of PM domains in the absence of a crosslinking Ab [6]: induced the formation of large domains enriched in GM1 ganglioside and cholesterol

**Q.** For `CCCCCCCCCCCCC/C=C/[C@@H](O)[C@H](CO[C@@H]1O[C@H](CO)[C@@H](O[C@@H]2O[C@H](CO)[C@H](O)[C@H](O)[C@H]2O)[C@H](O)[C@H]1O)NC(=O)CCCCc1ccc2n1[B-](F)(F)[N+]1=C(C)C=C(C)C1=C2` [BODIPY-LacCer], which “sensitivity of internalization to chlorpromazine (CPZ)” value (rat fibroblasts) is on record?
**A.** not by chlorpromazine

**Q.** What about the “sensitivity of internalization to nystatin” value (rat fibroblasts) of the same compound?
**A.** substantially inhibited

**Q.** What about the “inhibition of endocytosis when delivered by ethanol injection vs. BSA complex” value (rat fibroblasts; ethanolic solution) of the same compound?
**A.** virtually identical results

**Q.** And the “Inhibition of lipid analog endocytosis, Clathrin-dependent internalization, Chloropromazine” value (rat fibroblasts; internalization at 5 min)?
**A.** 9.3 ± 1.7%

**Q.** And the “Inhibition of lipid analog endocytosis, Clathrin-dependent internalization, K+-depletion” value (rat fibroblasts; internalization at 5 min)?
**A.** 10.4 ± 1.3%

**Q.** What about the “Inhibition of lipid analog endocytosis, Clathrin-independent internalization, Genistein” value (rat fibroblasts; internalization at 5 min) of the same compound?
**A.** 73.9 ± 4.1%

**Q.** And the “Inhibition of lipid analog endocytosis, Clathrin-independent internalization, Nystatin” value (rat fibroblasts; internalization at 5 min)?
**A.** 75.1 ± 6.8%

**Q.** And the internalization route [7]?
**A.** internalized via caveolae

**Q.** Which results are given for `CCCCCCCCCCCCC/C=C/[C@H](O)[C@H](CO[C@@H]1O[C@H](CO)[C@@H](O[C@@H]2O[C@H](CO)[C@H](O)[C@H](O)[C@H]2O)[C@H](O)[C@H]1O)NC(=O)CCCCCCC` [C8-LT-LacCer, β-D-lactosyl-N-octanoyl-L-threo-sphingosine]?
**A.** uptake of caveolar markers (fluorescent albumin, β1-integrin Fab) [1]: inhibited uptake of multiple caveolar markers; uptake of caveolar markers (fluorescent albumin, β1-integrin Fab) ([1]; listed as LT-isomer of C8-LacCer): selectively inhibiting caveolar endocytosis; clustering of PM domains induced by labeled CtxB and crosslinking Ab [2]: no clustering of PM domains was observed; SV40 induction of PM domains [8]: prevented the SV40 induction of these PM domains; HUTS binding (β1-integrin activation) induced by β1-stim Ab (β1-integrin; HSFs pretreated with lipid prior to β1-stim Ab): reduced HUTS binding to levels seen in untreated control cells; HUTS binding (β1-integrin activation), agent alone (β1-integrin): no increase in HUTS binding was seen; src activation (phosphorylation at Y416), lipid alone (src kinase): little or no src activation; src phosphorylation induced by β1-stim Ab (src kinase): inhibited src phosphorylation; SV40 infection monitored by expression of the large T antigen (SV40 virus [5]): dramatically reduced; inhibition of SV40 binding to CV1 cells (SV40 virus [9]): about 80%

**Q.** Which “fraction internalized by clathrin-dependent endocytosis” value [10] does the source give for “C5-BODIPY-L-threo-lactosylceramide [BODIPY-LT-LacCer]” here?
**A.** 65-70%

**Q.** Which “src activation induced by C8-DE-LacCer” value (src kinase; with src inhibitor) does the source give for `CC(C)(C)n1nc(-c2ccc(Cl)cc2)c2c(N)ncnc21` [PP2] here?
**A.** blocked

From patent publication US8263576B2, “Non-natural sphingolipid analogs and uses thereof” (Mayo Foundation for Medical Education and Research, priority 2006, dated 2012)
